Source: patent US4447445A (priority 1983, dated 1984)
Values after ≈ are worked out from the molar mass of the structure shown. Values joined by “and” are separate entries in the source; they are usually repeats but may differ in a detail not shown here. Identical values can stand only once. “Also recorded” adds a separate entry of the source.

How the values were obtained:
[1] = test system: eggs (from Lytechinus pictus); assay: Fertilized Sea Urchin Egg Inhibition of Cleavage Assay; type: cell-based; settings: for inhibition of cell division: preliminary assays
Description: Test compound is added to a slurry of eggs (from Lytechinus pictus) within five minutes following fertilization and incubated until the completion of first division in control slurry, approximately 90 minutes. Inhibition is measured as the percent of undivided eggs in the slurry at the end of incubation [Hinegardner, R., In The Sea Urchin Embryo, ed. C. Czihar (Springer-Verlag, Berlin, 1974)].

isolated diaphragm = assay: Rat Phrenic Nerve - Hemidiaphragm; settings: for effects on skeletal muscle: preliminary assays
Description: Compound is tested for its ability to inhibit or facilitate the twitch of the isolated diaphragm in response to the electrical stimulation of the phrenic nerve [Bulbring, E., Br. J. Pharmac. Chemother. 1, 38 (1946)].

[2] = test system: PMA induced inflammation of mouse ears; assay: PMA Mouse Ear Anti-Inflammatory Assay; type: in vivo; settings: for % Inhibition of Edema Alone: Manoalide 0.04 mg/ear, Hydrocortisone 0.009 mg/ear, Indomethacin 0.09 mg/ear
Description: (§1) Test compound and phorbol myristate acetate (PMA) or arachidonic acid (ARA) are topically applied simultaneously to the left ears of mice. Three hours 20 minutes (or one hour for ARA) after application, the mouse is sacrificed, left and right ears removed and standard sized bores taken. Edema (inflammation) is measured as the difference in weight between left and right ears [Van Arman, C. G., Clin. Pharmacol. Ther. 16, 900-904 (1974)].

[3] = test system: spontaneous beating isolated guinea pig auricles; assay: Guinea Pig Auricles; settings: for effects on cardiac muscle: preliminary assays
Description: Test compound is administered to the spontaneous beating isolated guinea pig auricles and observed for its ability to alter either the rate or the force of contraction or to antagonize the effects of acetylcholine [modified from J. Physiol. 61, 547 (1926); Heffter's Hanb. Exp. Pharmak. 4, 185 (1937)].

[4] = test system: ARA induced inflammation of mouse ears; assay: Arachidonic Acid Mouse Ear Assay; settings: in vivo
Description: as §1

[5] = test system: oxazolone induced inflammation of mouse ears; assay: Oxazolone-Induced Sensitization inflammation; type: in vivo; settings: for EAR WEIGHT (MGS): with oxazolone
Description: Mice are sensitized by the application of oxazolone to the abdominal area. One week later, test compound and oxazolone are topically applied to the ears of these mice. Six hours after application, the mice are sacrificed, the ears removed and standard sized bores taken and weighed. Edema (inflammation) is measured as the difference in weight between control and treated ears. Without previous sensitization exposure, oxazolone has no inflammatory effect on mouse ears.

mice [6] = assay: Acute Toxicity (with analgesia screening); type: in vivo, mouse; settings: initial screening
Description: Test compound is injected subcutaneously into mice which are observed for three days for both lethality and any unusual behavior or appearance. This assay may be performed in conjunction with analgesia assays.

β-bungarotoxin = β-bungarotoxin (Bungarus multicinctus, UniProt P00617)
Sequence of β-bungarotoxin (P00617 whole entry, looked up): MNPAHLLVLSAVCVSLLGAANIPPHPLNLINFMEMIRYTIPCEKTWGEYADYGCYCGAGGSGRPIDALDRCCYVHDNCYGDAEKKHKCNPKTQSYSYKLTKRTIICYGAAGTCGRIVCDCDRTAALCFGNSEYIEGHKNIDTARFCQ

isolated rat uterus = assay: Rat Uterus (Prostaglandin Assay); settings: against PGE2, PGE1 and PGF2
[7] = test system: isolated section of small intestine; assay: Guinea Pig Ileum; settings: initial screening
[8] = test system: tumors formed on mouse ears; assay: Tumor Promotion (DMBA/PMA mouse ear); type: in vivo; settings: PMA as promoter with initiator DMBA
Excerpt: An initiating agent, 7,12-dimethylbenzanthracene (DMBA), is applied topically to the ears of mice. Beginning one month later, a tumor promoting agent, phorbol myristate acetate (PMA), and the test compound are applied simultaneously to the ears twice per week for four weeks, then once per week for two weeks. Ears are observed for formation of tumors at the times of application and one week following completion of applications.

acetylcholinesterase = target: T1, acetylcholinesterase (Rattus norvegicus, UniProt P37136); assay: Acetylcholinesterase Assay; type: biochemical
T1 construct: rat brain extract (source of acetylcholinesterase); from tissue; host or cells: rat brain extract
T1 sequence (P37136 32-614): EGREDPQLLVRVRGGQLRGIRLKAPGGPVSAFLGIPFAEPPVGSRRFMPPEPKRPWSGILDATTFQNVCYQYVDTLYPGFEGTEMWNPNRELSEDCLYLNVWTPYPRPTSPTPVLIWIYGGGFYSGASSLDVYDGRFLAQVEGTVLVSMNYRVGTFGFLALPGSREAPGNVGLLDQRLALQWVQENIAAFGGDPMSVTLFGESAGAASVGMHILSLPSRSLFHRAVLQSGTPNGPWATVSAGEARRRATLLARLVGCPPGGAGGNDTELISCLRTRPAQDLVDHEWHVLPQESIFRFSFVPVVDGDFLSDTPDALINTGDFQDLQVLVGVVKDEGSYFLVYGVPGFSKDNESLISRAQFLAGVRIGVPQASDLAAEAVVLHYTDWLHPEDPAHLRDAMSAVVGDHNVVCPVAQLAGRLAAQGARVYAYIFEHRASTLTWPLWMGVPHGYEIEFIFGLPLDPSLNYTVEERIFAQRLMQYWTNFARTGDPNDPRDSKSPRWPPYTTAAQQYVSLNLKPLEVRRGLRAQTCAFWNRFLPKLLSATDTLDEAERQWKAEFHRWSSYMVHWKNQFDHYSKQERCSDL
Description: Test compound is incubated with rat brain extract (source of acetylcholinesterase), acetylthiocholine and dithiobis (2-nitrobenzoic acid). Inhibition of acetylcholinesterase activity is measured spectrophotometrically.

[9] = test system: PMA induced inflammation of mouse ears; assay: PMA Mouse Ear Anti-Inflammatory Assay; settings: in vivo
mice [10] = assay: Analgesia - Haffner Technique (tail clip); type: in vivo, mouse; settings: high doses
Description: Analgesia is measured as the lack of response to a pinch clamp applied to the tail of a mouse 15 to 30 minutes following subcutaneous injection of the test compound [Bianchi, G. and G. Franeschini, Brit. J. Pharmac. 9, 280 (1954)].

[11] = target: phospholipase A2 from bee venom (Apis mellifera, UniProt P00630); type: biochemical
Sequence of phospholipase A2 from bee venom (P00630 34-167 limits assumed): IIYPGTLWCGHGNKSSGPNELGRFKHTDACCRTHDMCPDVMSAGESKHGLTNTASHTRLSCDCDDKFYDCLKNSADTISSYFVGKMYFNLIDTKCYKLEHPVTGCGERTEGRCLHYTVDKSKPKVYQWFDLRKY

[12] = test system: electrically driven section of isolated small intestine; assay: Electrically Stimulated Guinea Pig Ileum
mouse ears = assay: Histology of mouse ears from the anti-inflammatory assay; settings: in vivo
Excerpt: Mouse ears from the anti-inflammatory assay are fixed in Karnofsky's fixative and osmium tetroxide and then embedded in araldite epoxy resin for sectioning for light and electron microscopy.

[13] = mouse, in vivo, listed as manoalide

CC(=CCCC(C=O)=CC=CC1=CC(=O)OC1O)CCC1=C(C)CCCC1(C)C (single isomer, unassigned) [dehydro-seco-manoalide]
inhibition of cell division [1]: no significant activity
effects on skeletal muscle (isolated diaphragm): no significant activity
PMA Mouse Ear anti-inflammatory activity (remark) ([2]; mouse, in vivo): anti-inflammatoryactivity
anti-inflammatory potency relative to comparators ([2]; mouse, in vivo): nearly equivalent in potency to that of manoalide
effects on cardiac muscle [3]: no significant activity

C[C@]12CCC(=O)C=C1CC[C@@H]1[C@@H]2[C@@H](O)C[C@@]2(C)[C@H]1CC[C@]2(O)C(=O)CO [Hydrocortisone, hydrocortisone, reference compound]
effect on ARA induced ear inflammation [4]: Neither manoalide nor hydrocortisone affected the ARA induced inflammation
% Inhibition of Edema Alone [2]: 16.59 ± 7.00%
EAR WEIGHT (MGS) ([5]; dose 50 μg/ear): 9.7 ± 1.2 MGS
EAR WEIGHT (MGS) ([5]; dose 100 μg/ear): 9.2 ± 0.4 MGS

COc1ccc2c(c1)c(CC(=O)O)c(C)n2C(=O)c1ccc(Cl)cc1 [Indomethacin, indomethacin, reference compound]
effect on ARA induced ear inflammation [4]: effectively blocked
% Inhibition of Edema Alone [2]: 31.42 ± 12.72%
EAR WEIGHT (MGS) ([5]; dose 50 μg/ear): 16.6 ± 5.7 MGS
EAR WEIGHT (MGS) ([5]; dose 100 μg/ear): 11.1 ± 1.2 MGS

CC1=C(CC/C(C)=C/CCC2=CCC(C3=CC(=O)OC3O)OC2O)C(C)(C)CCC1 (centres unmarked) [Manoalide]
Mouse Toxicity and Analgesia (remark) (mice [6]): Active
inactivation of β-Bungarotoxin neurotoxic action (β-bungarotoxin): inactivated the irreversible neurotoxic action of β-bungarotoxin; also recorded: prevents the paralytic action of β-bungarotoxin
Rat Uterus (Prostaglandin Assay) activity (isolated rat uterus): Inactive
Rat Uterus (Prostaglandin Assay) activity (isolated rat uterus; listed as manoalide): inactive against these agents
Guinea Pig Ileum (remark) [7]: Active
incidence of tumors formed on mouse ears [8]: significantly decreases the incidence of tumors
effect on ARA induced ear inflammation [4]: Inactive
effect on ARA induced ear inflammation ([4]; listed as manoalide): Neither manoalide nor hydrocortisone affected the ARA induced inflammation
Acetylcholinesterase (remark) (acetylcholinesterase): Inactive
PMA - Mouse Ear Time Course of Action: time of optimum activity relative to PMA application [9]: < 5 min
PMA - Mouse Ear Time Course of Action: time of optimum activity relative to PMA application ([9]; listed as manoalide): five
IC50 ([1]; Lytechinus pictus, 1.5 h, read-out: Fertilized Sea Urchin Egg ED50): 1 µg/mL (≈ 2.4 µM)
Fertilized Sea Urchin Egg Inhibition of Cleavage (remark) ([1]; initial screening): Active
Analgesia (Haffner Tail-Clip), mechanically induced pain (mice [10]): Inactive
Analgesia (Haffner Tail-Clip), mechanically induced pain (mice [10]; listed as manoalide): did not significantly affect mechanically induced pain
Inhibition of purified phosplolipase A2 (remark) [11]: Active
effect on enzyme activity (hydrolysis of phosphatidylcholine) [11]: concentration dependent decrease in enzyme activity; also recorded: potent inhibitor of the hydrolysis of phosphatidylcholine
type of inhibition of phospholipase A2 [11]: non-competitive inhibitor
Electrically Stimulated Guinea Pig Ileum (remark) [12]: Inactive
antagonism of the morphine block [12]: nor did it antagonize the morphine block
block of electrically induced contractions [12]: neither blocked electrically induced contractions
Histology of PMA treated ears (mouse ears): Decreased lymphocyte
Histology of PMA treated ears (mouse ears; listed as manoalide): qualitatively produced similar effects to both hydrocortisone and indomethacin
contracture in the rat hemidiaphragm preparation (isolated diaphragm): modest contracture
effect on the directly stimulated twitch (isolated diaphragm): mildly inhibiting the directly stimulated twitch
Rat Phrenic Nerve - Hemidiaphragm (remark) (isolated diaphragm; initial screening): Active
% Inhibition of Edema Alone [2]: 28.24 ± 6.58%
PMA - Mouse Ear Competition for binding ([2]; mouse, in vivo): Does not compete
PMA - Mouse Ear Potentiation (with Hydrocortisone and Indomethacin) ([2]; mouse, in vivo): Active
PMA Mouse Ear anti-inflammatory activity (remark) ([2]; mouse, in vivo): Active; also recorded: blocks this inflammation
anti-inflammatory potency relative to comparators ([2]; mouse, in vivo): greater than that of indomethacin; also recorded: less potent than hydrocortisone
anti-inflammatory potency relative to comparators [2, 13]: more potent than indomethacin and less potent than hydrocortisone
ED50 (PMA induced ear inflammation) ([2]; topical, will vary with PMA dose): ~40 μg/ear
reduction of inflammation due to PMA induction ([2]; total dose of 10 μg applied to the ear): marked reduction of inflammation
EAR WEIGHT (MGS) ([5]; dose 50 μg/ear): 17.5 ± 3.7 MGS
EAR WEIGHT (MGS) ([5]; dose 100 μg/ear): 13.1 ± 1.4 MGS
effect on oxazolone induced inflammation [5, 13]: blocks the oxazolone induced inflammation
Acetylcholine Antagonism in Guinea Pig Auricles [3]: Inactive
Guinea Pig Auricles (remark) ([3]; initial screening): Active

CCN(CC)CCCC(C)Nc1c2ccc(Cl)cc2nc2ccc(OC)cc12 (centres unmarked) [mepacrine]
Mean TI50 ± S.E. (β-bungarotoxin): 43.50 ± 2.50 and 49.00 ± 4.00 and 46.60 ± 7.54 and 35.66 ± 4.67
effect on enzyme activity (hydrolysis of phosphatidylcholine) [11]: ineffective

CC1=C(CC/C(C)=C/CCC(C=O)=CCC(O)C2=CC(=O)OC2O)C(C)(C)CCC1 (centres unmarked) [seco-manoalide]
inhibition of cell division [1]: no significant activity
effects on skeletal muscle (isolated diaphragm): no significant activity
PMA Mouse Ear anti-inflammatory activity (remark) ([2]; mouse, in vivo): anti-inflammatoryactivity
anti-inflammatory potency relative to comparators ([2]; mouse, in vivo): nearly equivalent in potency to that of manoalide
effects on cardiac muscle [3]: no significant activity
